Measurements published in PubChem BioAssay AID1845215 (Molecular Pharmacology Branch, DTP, NCI, 2023).
pIC50: −log10 of the molar value.

Test system: SW 1271 complex tumor spheroid viability
Assay: Anticancer human tumor SW 1271 cell line growth inhibition;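 note: spheroids exposed to agents for seven days before readout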;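 for viability, T/C: percent of DMSO vehicle control luminescence so 100% = vehicle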
Settings: for pIC50: curve of first compound; for viability, T/C: stronger effect = lower value
Summary of the method: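 Complex tumor spheroids combined malignant cells with endothelial cells and mesenchymal stem cells. DNA-damaging drugs and DNA repair inhibitors were tested alone and in combination, at half-log dilutions down from clinical Cmax (top 10 microM if Cmax unknown), 0.25% DMSO final.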

[1] = second compound 30 pM, first compound 0.00949 µM
[2] = second compound 30 pM, first compound 0.03 µM
[3] = second compound 30 pM, first compound 0.0949 µM
[4] = second compound 30 pM, first compound 0.3 µM
[5] = second compound 30 pM, first compound 0.949 µM
[6] = second compound 30 pM, first compound 3 µM
[7] = second compound 94.9 pM, first compound 0.00949 µM
[8] = second compound 94.9 pM, first compound 0.03 µM
[9] = second compound 94.9 pM, first compound 0.0949 µM
[10] = second compound 94.9 pM, first compound 0.3 µM
[11] = second compound 94.9 pM, first compound 0.949 µM
[12] = second compound 94.9 pM, first compound 3 µM
[13] = second compound 0.0003 µM, first compound 0.00949 µM
[14] = second compound 0.0003 µM, first compound 0.03 µM
[15] = second compound 0.0003 µM, first compound 0.0949 µM
[16] = second compound 0.0003 µM, first compound 0.3 µM
[17] = second compound 0.0003 µM, first compound 0.949 µM
[18] = second compound 0.0003 µM, first compound 3 µM
[19] = second compound 0.000949 µM, first compound 0.00949 µM
[20] = second compound 0.000949 µM, first compound 0.03 µM
[21] = second compound 0.000949 µM, first compound 0.0949 µM
[22] = second compound 0.000949 µM, first compound 0.3 µM
[23] = second compound 0.000949 µM, first compound 0.949 µM
[24] = second compound 0.000949 µM, first compound 3 µM
[25] = second compound 0.003 µM, first compound 0.00949 µM
[26] = second compound 0.003 µM, first compound 0.03 µM
[27] = second compound 0.003 µM, first compound 0.0949 µM
[28] = second compound 0.003 µM, first compound 0.3 µM
[29] = second compound 0.003 µM, first compound 0.949 µM
[30] = second compound 0.003 µM, first compound 3 µM

SMILES	pIC50 (second compound 30 pM)	pIC50 (second compound 94.9 pM)	pIC50 (second compound 0.0003 µM)	pIC50 (second compound 0.000949 µM)	pIC50 (second compound 0.003 µM)	viability, T/C [3] [%]	viability, T/C [4] [%]	viability, T/C [5] [%]	viability, T/C [6] [%]	viability, T/C [9] [%]	viability, T/C [10] [%]	viability, T/C [11] [%]	viability, T/C [12] [%]	viability, T/C [15] [%]	viability, T/C [16] [%]	viability, T/C [17] [%]	viability, T/C [18] [%]	viability, T/C [21] [%]	viability, T/C [22] [%]	viability, T/C [23] [%]	also measured
CNCc1ccc(-c2cc(-c3nc(-c4ccc(S(=O)(=O)C(C)C)cc4)cnc3N)on2)cc1 + COc1cc2c(cc1O)CCNC21CSC2c3c(OC(C)=O)c(C)c4c(c3C(COC1=O)N1C(O)C3Cc5cc(C)c(OC)c(O)c5C(C21)N3C)OCO4	6.93	7.58	> 8.02	> 8.02	> 8.02	55.5	18.8	11.3	0.15	37	27.9	14.7	0.12	38.5	35	19.5	0.15	3.92	2.05	1.95	viability, T/C [1]: 89.6%; viability, T/C [2]: 89.7%; viability, T/C [7]: 64%; viability, T/C [8]: 42.6%; viability, T/C [13]: 28.8%; viability, T/C [14]: 35.5%; viability, T/C [19]: 5.31%; viability, T/C [20]: 7.14%; viability, T/C [24]: 0.11%; viability, T/C [25]: 0.11%; viability, T/C [26]: 0.11%; viability, T/C [27]: 0.09%; viability, T/C [28]: 0.09%; viability, T/C [29]: 0.1%; viability, T/C [30]: 0.16%
Cc1sc2c(c1C)C(c1ccc(Cl)cc1)=NC(CC(=O)Nc1ccc(O)cc1)c1nnc(C)n1-2 (stereo not given) + COc1cc2c(cc1O)CCNC21CSC2c3c(OC(C)=O)c(C)c4c(c3C(COC1=O)N1C(O)C3Cc5cc(C)c(OC)c(O)c5C(C21)N3C)OCO4	6.84	7.38	> 8.02	> 8.02	> 8.02	74.3	8.06	1.02	0.91	28.9	5.41	1.12	0.93	13.5	2.97	1.45	0.77	2.99	1.78	0.1	viability, T/C [1]: 101%; viability, T/C [2]: 108%; viability, T/C [7]: 76.2%; viability, T/C [8]: 57.9%; viability, T/C [13]: 30.6%; viability, T/C [14]: 23.9%; viability, T/C [19]: 6.61%; viability, T/C [20]: 6.28%; viability, T/C [24]: 0.09%; viability, T/C [25]: 0.11%; viability, T/C [26]: 0.11%; viability, T/C [27]: 0.11%; viability, T/C [28]: 0.11%; viability, T/C [29]: 0.09%; viability, T/C [30]: 0.17%
Cn1ncnc1[C@H]1c2n[nH]c(=O)c3cc(F)cc(c23)N[C@@H]1c1ccc(F)cc1 + COc1cc2c(cc1O)CCNC21CSC2c3c(OC(C)=O)c(C)c4c(c3C(COC1=O)N1C(O)C3Cc5cc(C)c(OC)c(O)c5C(C21)N3C)OCO4	7.90	> 8.02	> 8.02	> 8.02	> 8.02	30.2	36.5	32.9	26.3	32.7	32.9	34.7	20.4	27.7	32.8	27.4	10.2	2.24	5.88	2.29	viability, T/C [1]: 53.8%; viability, T/C [2]: 38.3%; viability, T/C [7]: 37.2%; viability, T/C [8]: 33.5%; viability, T/C [13]: 34.7%; viability, T/C [14]: 35%; viability, T/C [19]: 8.93%; viability, T/C [20]: 4.22%; viability, T/C [24]: 0.31%; viability, T/C [25]: 0.1%; viability, T/C [26]: 0.09%; viability, T/C [27]: 0.09%; viability, T/C [28]: 0.1%; viability, T/C [29]: 0.09%; viability, T/C [30]: 0.15%
O=C(c1cc(Cc2n[nH]c(=O)c3ccccc23)ccc1F)N1CCN(C(=O)C2CC2)CC1 + COc1cc2c(cc1O)CCNC21CSC2c3c(OC(C)=O)c(C)c4c(c3C(COC1=O)N1C(O)C3Cc5cc(C)c(OC)c(O)c5C(C21)N3C)OCO4	5.87	6.69	> 7.02	> 7.02	> 7.02	87.3	70.1	57.6	36.5	54.3	53.6	31.2	29.9	28	35.6	32.8	31.1	4.23	5.88	3.15	viability, T/C (second compound 30 pM, first compound 9.49 µM): 25.3%; viability, T/C (second compound 30 pM, first compound 30 µM): 11.8%; viability, T/C (second compound 94.9 pM, first compound 9.49 µM): 28.6%; viability, T/C (second compound 94.9 pM, first compound 30 µM): 11.7%; viability, T/C (second compound 0.0003 µM, first compound 9.49 µM): 24.2%; viability, T/C (second compound 0.0003 µM, first compound 30 µM): 3.66%; viability, T/C [24]: 1.8%; viability, T/C (second compound 0.000949 µM, first compound 9.49 µM): 1.43%; viability, T/C (second compound 0.000949 µM, first compound 30 µM): 0.13%; viability, T/C [27]: 0.19%; viability, T/C [28]: 0.19%; viability, T/C [29]: 0.12%; viability, T/C [30]: 0.13%; viability, T/C (second compound 0.003 µM, first compound 9.49 µM): 0.15%; viability, T/C (second compound 0.003 µM, first compound 30 µM): 0.21%
